Data on five compounds can be found in patent US4707475A, “Agent for lowering serum prolactin levels” (priority 1985, dated 1987).

Data set [1] relates to dopamine autoreceptors (DA-autoreceptors). As to conditions: cited from earlier work; for selectivity as DA-autoreceptor agonist: compared with B-HT 920, literature.
Another data set deals with prolactin. As to conditions: Gudelsky 1983; cited from earlier work.
The next data set deals with DA-receptors. As to conditions: cited from earlier work; for action as DA agonist: Gudelsky et al.
Another data set has as its system prolactin level. Kind of data set: Prolactin level in blood of 6 healthy male subjects after 150 μg B-HT 920 (PROLRIA-100 radioimmunological method). It is filed as in vivo, healthy male subjects (human). Details: unit not given here. On the procedure: The compound B-HT 920 is tested for its effect on PRL-reduction as follows. The tests are carried out with 6 healthy male subjects ranging in age from 24 to 34, each subject being given 150 μg of B-HT 920. Blood samples are taken from each subject at intervals of 0, 1, 2, 3 and 5 hours. The prolactin level in the sample is determined by the known PROLRIA-100 radioimmunological method of the National Insitute of the Radioelements, 6220 Fleurs, Belgium. The following table contains the results found for each subject at the 1 hour intervals shown.

Data set [2] relates to endogenous dopamine synthesis in the brain. As to conditions: in vivo, Anden et al. 1983; cited from earlier work.
The subject of another data set is prolactin (PRL). Kind of data set: Lowering of blood and serum levels of prolactin (general statement). As to conditions: in vivo.
Data set [3] is described as follows: Tolerability (general statement). Conditions: in vivo.

As to `CCCN1CCCC(c2cccc(O)c2)C1` (stereo not shown) [3-PPP], the “selectivity as DA-autoreceptor agonist” value in data set [1] was “not selectively active as DA-autoreceptor agonists”. Moreover, in the data set with prolactin, the prolactin inhibiting activity entry is listed as “prolactin inhibiting activity”. The “action as DA agonist” value in the data set with DA-receptors is “act preferentially as DA agonists”.

For `C=CCN1CCc2nc(N)sc2CC1.Cl.Cl` [B-HT 920, 6-allyl-2-amino-5,6,7,8-tetrahydro-4H-thiazolo-[4,5-d]azepine dihydrochloride], the prolactin level is 2.56 in the data set on prolactin level (subject 1, 1 hour); 0.52 with prolactin level (subject 1, 2 hours); 2.52 in the data set with prolactin level (subject 1, 3 hours); 3.26 in the data set with prolactin level (subject 1, 5 hours); 3.33 with prolactin level (subject 1, time 0); 2.85 in the data set on prolactin level (subject 2, 1 hour). In addition, the prolactin level in the data set on prolactin level (subject 2, 2 hours) is recorded as 0.69; in the data set with prolactin level (subject 2, 3 hours) it was 0.52; with prolactin level (subject 2, 5 hours) it was 2.25; in the data set with prolactin level (subject 2, time 0) it was 3.86; in the data set on prolactin level (subject 3, 1 hour) it was 4.15; with prolactin level (subject 3, 2 hours), 4.92. In addition, the prolactin level in the data set with prolactin level (subject 3, 5 hours) was determined as 1.85; with prolactin level (subject 3, time 0), 4.22; in the data set on prolactin level (subject 4, 1 hour), 4.52; in the data set with prolactin level (subject 4, 2 hours), 7.89; in the data set on prolactin level (subject 4, 5 hours) it was 4.11; in the data set on prolactin level (subject 4, time 0), 5.04. The prolactin level turned out to be 7.19 in the data set on prolactin level (subject 5, 1 hour); 1.37 in the data set with prolactin level (subject 5, 2 hours); 3.43 in the data set on prolactin level (subject 5, 3 hours); 2.89 with prolactin level (subject 5, 5 hours); 5.00 with prolactin level (subject 5, time 0); 7.59 in the data set with prolactin level (subject 6, 1 hour). Besides, the prolactin level with prolactin level (subject 6, 2 hours) was determined as 1.57; in the data set with prolactin level (subject 6, 5 hours) it was 4.33; in the data set with prolactin level (subject 6, time 0), 6.59. Further, the “effect on dopamine autoreceptors” value in data set [1] (Anden et al. 1982) is “selective agonistic effect on dopamine autoreceptors”. For the same compound, the “effect on endogenous dopamine synthesis” value in data set [2] is on record as “inhibits endogenous dopamine synthesis in the brain”.

As to `CN(C)C1CCc2cc(O)c(O)cc2C1` (stereo not shown) [TL-99], the “selectivity as DA-autoreceptor agonist” value in data set [1] is given as “not selectively active as DA-autoreceptor agonists”. For the same compound, the prolactin inhibiting activity entry with prolactin is “prolactin inhibiting activity”. Besides, in the data set with DA-receptors, the “action as DA agonist” value is “act preferentially as DA agonists”. Besides, the postsynaptic activity entry in the data set on DA-receptors (effect on the DA-receptors, Pastor et al. 1983) was “possibly has a postsynaptic activity”.

On to `CN1CCc2cccc3c2[C@H]1Cc1ccc(O)c(O)c1-3` [apomorphine], for which the “selectivity as DA-autoreceptor agonist” value in data set [1] is “not selectively active as DA-autoreceptor agonists”. The “action on DA-receptors and DA-autoreceptors” value in the data set on DA-receptors (well known) is “acts both on DA-receptors and also on DA-autoreceptors”.

For `C=CCN1CCc2nc(N)sc2CC1` [compound A, 6-allyl-2-amino-5,6,7,8-tetrahydro-4H-thiazolo-[4,5-d]azepine], the “effect on blood and serum levels of prolactin (PRL)” value in the data set on prolactin (PRL) was “lower the blood and serum levels of prolactin (PRL)”. Also, in data set [3], the tolerability result was “well tolerated”.
